Reference: PMC3954793, “SHP-2 Binds to Caveolin-1 and Regulates Src Activity via Competitive Inhibition of CSK in Response to H2O2 in Astrocytes” (PLoS ONE, 2014)
Entries after “also recorded” stand apart in the source; their conditions may differ. Read-outs that look alike come from different tables or passages of the source. Square brackets hold non-standard residues; d marks the D form. Ends that are not written are not given here. pY = N[C@@H](Cc1ccc(OP(=O)(O)O)cc1)C(=O)O

Key:
[1] = tested on: caveolin-1 (Tyr 14 phosphorylation); assay: Immunoblot of p-caveolin-1 in human astroglioma cells and HUVECs; type: cell-based; conditions: for suppression of H2O2-induced caveolin-1 phosphorylation: pretreated 30 min, then 5 mM H2O2 for 10 min, percentage of H2O2-treated values, three independent experiments
Excerpt: HUVECs were utilized as a positive control. Data are representative of at least three experiments. […] Data are representative of three independent experiments.

caveolin-1/CSK complex = assay: Co-immunoprecipitation of caveolin-1 and CSK; type: cell-based, human; conditions: CRT-MG cells; H2O2 10 min; IP anti-caveolin-1
Experimental: cDNA encoding full-length human caveolin-1 was obtained from Thermo Scientific (Waltham, MA, USA). The Y14A caveolin-1 mutant was generated using a QuickChange site-directed mutagenesis kit (Stratagene, Santa Clara, CA, USA) using PCR. pCMV-SPORT6-caveolin-1 cDNA (25 ng) was used as a template and added to dNTP mix, Pfu buffer, Pfu turbo DNA polymerase and 125 ng of each of the mutagenic primers: sense, 5′-[…]-3′ and antisense, 5′-[…]-3′. Samples were then incubated at 95°C for 1 min, then for 20 cycles of 95°C for 1 min, 65°C for 4 min, and 68°C for 12 min. The methylated parental DNA template in the PCR product was digested using the DpnI (10 U) restriction enzyme for 3 h at 37°C. […] After mutagenesis, 1 µg of caveolin-1 wild-type (WT) or Y14A mutant DNA was transfected into HEK 293T cells using VIVAMAGIC transfection reagent (VIVAGEN, Seongnam, Korea) containing 10% FBS according to the manufacturer’s instructions for 24 h before treatment with 5 mM H2O2 for 10 min; the cells were then analyzed by immunoblotting.
Cells were plated and transfected with green fluorescence protein (GFP) siRNA (Samchully Pharm Co. Ltd., Seoul, Korea) as a control group and human CSK siRNA and human SHP-2 siRNA from Bioneer (Daejeon, Korea) using Lipofectamine RNAiMAX (Invitrogen, Carlsbad, CA, USA) according to the manufacturer’s instructions to achieve a final concentration of 300 nM. […]

ERK phosphorylation = assay: Immunoblot of p-ERK; type: cell-based, human; conditions: CRT-MG cells; 5 mM H2O2, 10 min
Experimental: Cells were plated and transfected with green fluorescence protein (GFP) siRNA (Samchully Pharm Co. Ltd., Seoul, Korea) as a control group and human CSK siRNA and human SHP-2 siRNA from Bioneer (Daejeon, Korea) using Lipofectamine RNAiMAX (Invitrogen, Carlsbad, CA, USA) according to the manufacturer’s instructions to achieve a final concentration of 300 nM.
(§1) Figure 7 SHP-2 and CSK reciprocally regulate H2O2-induced Src activation. […] Tubulin was evaluated as a loading control. Bottom panel, Densitometric quantification of p-Src Y419 levels (empty bars) and p-Src Y530 levels (filled bars), normalized to the level of total Src. Results are expressed as percentage of H2O2-treated values in control siRNA presented as mean ± SD. (*p<0.05 vs. H2O2-treated cells transfected with control siRNA; #p<0.05 between SHP-2 siRNA-transfected cells and CSK siRNA-transfected cells; n = 3). (B) Inhibition of SHP-2 by PTPi IV attenuated the H2O2-induced activation of the Src signaling pathway. CRT-MG cells were treated with 5 mM H2O2 or not for 10 min in the presence of 5 or 10 µM PTPi IV for 30 min, and lysed in cold-RIPA buffer. Antibodies against p-SHP-2, SHP-2, p-Src, Src, p-FAK, FAK, p-ERK, ERK, and tubulin were used for immunoblotting. Bottom panel, Densitometric quantification of p-Src Y419 levels (empty bars) and p-Src Y530 levels (filled bars), normalized to the level of total Src. […] (p, phospho).

FAK phosphorylation = assay: Immunoblot of p-FAK; type: cell-based, human; conditions: CRT-MG cells; 5 mM H2O2, 10 min
Experimental: as §1

[2] = tested on: caveolin-1 (Tyr 14 phosphorylation); conditions: rat primary astrocytes; 1 mM H2O2, 10 min; immunoblot
caveolin-1/SHP-2 complex = conditions: CRT-MG cells; 5 mM H2O2, 10 min; PLA red dots; repeated 4 times
[3] = tested on: caveolin-1 (Tyr 14 phosphorylation); conditions: bovine pulmonary artery endothelial cells and placenta artery endothelial cells; ref [28]–[30]; cited from earlier work
recombinant GST-SHP-2 = molecular target: T1, recombinant GST-SHP-2 (Homo sapiens, UniProt Q06124); assay: PepSPOTs assay, rGST-SHP-2; type: binding; conditions: 13-mer peptides of caveolin-1 (1–85) with phosphorylated Tyr 6, 14, 25, 42 on cellulose membrane; 1 µg rGST-SHP-2, overnight; repeated 3 times
T1 construct: purchased Abnova (Taipei, Taiwan)
T1 sequence (Q06124 1-593): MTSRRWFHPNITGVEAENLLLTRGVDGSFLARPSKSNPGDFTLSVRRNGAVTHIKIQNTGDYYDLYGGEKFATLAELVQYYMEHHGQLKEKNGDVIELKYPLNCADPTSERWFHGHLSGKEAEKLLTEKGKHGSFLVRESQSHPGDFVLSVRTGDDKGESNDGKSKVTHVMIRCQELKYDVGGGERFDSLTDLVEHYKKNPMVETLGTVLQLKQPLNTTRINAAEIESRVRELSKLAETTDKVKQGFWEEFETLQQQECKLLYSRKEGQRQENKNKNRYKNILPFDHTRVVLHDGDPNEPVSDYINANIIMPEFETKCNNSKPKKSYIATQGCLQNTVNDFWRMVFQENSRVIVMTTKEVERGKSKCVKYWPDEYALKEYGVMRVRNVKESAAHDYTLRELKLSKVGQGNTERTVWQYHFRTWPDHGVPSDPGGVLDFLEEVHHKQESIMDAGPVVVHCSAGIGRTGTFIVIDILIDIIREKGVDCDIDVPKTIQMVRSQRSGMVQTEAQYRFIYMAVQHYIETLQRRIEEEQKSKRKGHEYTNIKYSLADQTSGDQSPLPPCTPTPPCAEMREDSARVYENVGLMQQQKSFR
Experimental: (§2) Identification of binding sites for recombinant SHP-2 and CSK in the caveolin-1 protein was performed using PepSPOTs (JPT Peptide Technologies GmbH, Berlin, Germany). Synthetic peptide sequences of caveolin-1 (1–85 and 1–28) were used in this study. The peptide library contained either 13-mer peptides that overlapped by 5 residues or 13-mer peptides that overlapped by 8 residues. Each spot carried approximately 5 nmol of peptide covalently bound to the cellulose-betaalanine-membrane (N-terminus: acetyl). Two identical membranes were incubated overnight with either recombinant GST-SHP-2 (rGST-SHP-2) or GST-CSK (rGST-CSK) respectively, and immunoblotting was performed to detect rGST-SHP-2/caveolin-1 peptide and rGST-CSK/caveolin-1 peptide interactions.
(§3) Figure 4 Both SHP-2 and CSK bind specifically to phosphorylated caveolin-1 at Tyr 14. (A) Schematic diagram of caveolin-1. (B) A peptide array assay was performed to identify the binding site for recombinant SHP-2 and CSK in the caveolin-1 protein. Schematic diagram of the synthetic peptide sequences of caveolin-1 (1–85) spotted on the membrane used for study is shown in the left panel. The peptide numbering starts with 1 in the left corner and the phosphorylated tyrosine residues are indicated in bold. […]

recombinant GST-CSK = assay: PepSPOTs assay, rGST-CSK; type: binding; conditions: 13-mer peptides of caveolin-1 (1–85) with phosphorylated Tyr 6, 14, 25, 42 on cellulose membrane; 1 µg rGST-CSK, overnight; repeated 3 times
Experimental: as §2, §3

Which “suppression of H2O2-induced caveolin-1 phosphorylation” value ([1]; CRT-MG cells) does the source give for CC(=O)N[C@@H](CS)C(=O)O [NAC, N-acetyl-L-cysteine] here?
Its value is “considerably suppressed H2O2-induced caveolin-1 phosphorylation in a dose-dependent manner; also recorded: modest compared to catalase”.

With OO [H2O2, hydrogen peroxide] as the molecule, how does the “level of Tyr-phosphorylated caveolin-1, dose dependence” value ([1]; CRT-MG cells, H2O2 0–5 mM, 10 min, normalized to tubulin, mean ± SD from three experiments) read?
Its value is “dose-dependent increase in the level of Tyr-phosphorylated caveolin-1 up to a concentration of 5 mM”.

And the “phosphorylation of caveolin-1 at Tyr 14” value ([1]; HUVECs (positive control), 1 mM H2O2, 10 min, immunoblot)?
Its value is “induced the phosphorylation of caveolin-1”.

What about the “complex formation between caveolin-1 and CSK” value (caveolin-1/CSK complex) of the same molecule?
Its value is “complex formation occurred between caveolin-1 and CSK”.

And the “phosphorylation of ERK 1/2, H2O2-induced” value (ERK phosphorylation)?
The value was “leads to phosphorylation of ERK 1/2 and FAK”.

And the “phosphorylation of FAK, H2O2-induced” value (FAK phosphorylation)?
Its value is “leads to phosphorylation of ERK 1/2 and FAK”.

And the “phosphorylation of caveolin-1 at Tyr 14” value [2]?
The value was “induced the phosphorylation of caveolin-1; also recorded: strongly induced phosphorylation of caveolin-1 at Tyr 14”.

And the “direct interaction between SHP-2 and caveolin-1” value (caveolin-1/SHP-2 complex)?
Its value is “a direct interaction between SHP-2 and caveolin-1 (indicated by red dots) occurred”.

What about the “phosphorylation of caveolin-1 at Tyr 14” value [3] of the same molecule?
Its value is “induces the phosphorylation of caveolin-1 at Tyr 14”.

Which “binding of rGST-SHP-2 to caveolin-1 peptide spots” value (recombinant GST-SHP-2) does the source give for “spot 2: residues 9–21 of caveolin-1 (spot 2), which included Tyr 14 (Ac-SEGHL[pY]TVPIREQ)” here?
Its value is “only 1 spot of bound recombinant SHP-2 was detected”.

What about the “binding of rGST-CSK to caveolin-1 peptide spots” value (recombinant GST-CSK) of the same molecule?
The value was “strong binding”.

For catalase, which “suppression of H2O2-induced caveolin-1 phosphorylation” value ([1]; CRT-MG cells) is on record?
The value was “considerably suppressed H2O2-induced caveolin-1 phosphorylation in a dose-dependent manner; also recorded: completely abrogates H2O2-induced caveolin-1 phosphorylation”.
